Assay results: patent US8524738B2, “Quinolinones and quinoxalinones as antibacterial composition” (Toyama Chemical Co., Ltd., priority 2005, dated 2013)
Values after ≈ are worked out from the molar mass of the structure shown. Counter-ions that a name gives are not always drawn.

tested on: Staphylococcus aureus (S. aureus FDA209P); assay: Sensitivity Test 1: antibacterial activity (MIC) by micro-dilution method; format: cell-based; conditions: FDA209P
Protocol: Test compounds were initially dissolved in dimethylsulfoxide. Antibacterial activities (MICs) of the same compounds were determined by the micro-dilution method as recommended by the Japanese Society of Chemotherapy.
Staphylococcus aureus (S. aureus FDA209P) was used as the test organism. The bacterial cells were grown overnight at 35° C. on Mueller-Hinton agar (MHA) plates. The bacterial cells were then suspended in sterile saline and adjusted to the turbidity of a 0.5 McFarland standard. The inoculum was prepared by 10-fold dilution of this suspension. Approximately 0.005 mL aliquots of the inoculum prepared above were subsequently inoculated into Cation-adjusted Mueller-Hinton broth (CAMHB, 100 μL/well) including the test compounds for overnight incubation at 35° C.

Compound | MIC [µg/mL]
O=c1cnc2ccccc2n1CCN1CCC(NCc2ccc3c(c2)OCCO3)CC1 [Example 28, 1-(2-(4-((2,3-dihydro-1,4-benzodioxin-6-ylmethyl)amino)piperidin-1-yl)ethyl)quinoxalin-2(1H)-one hydrochloride] | 0.0625
COc1ccc2c(C)cc(=O)n(CCN3CCC(NCCSc4cccs4)CC3)c2c1 [Example 57, 7-methoxy-4-methyl-1-(2-(4-((2-(2-thienylthio)ethyl)amino)piperidin-1-yl)ethyl)quinolin-2(1H)one hydrochloride] | 0.0625

same assay, conditions: S. aureus FDA209P, CAMHB, overnight incubation at 35° C., lowest concentration with virtually no growth, read-out: MIC

MIC [µg/mL] | Compound
0.0625 (≈ 0.123 µM) | CNC(=O)C1CN(CCn2c(=O)ccc3ccc(OC)cc32)CCC1NCc1ccc2c(c1)OCCO2 (single isomer, unassigned) [Example 176, 4-((2,3-dihydro-1,4-benzodioxin-6-ylmethyl)amino)-1-(2-(7-methoxy-2-oxoquinolin-1(2H)-yl)ethyl)-N-methylpiperidine-3-carboxamide]
0.25 (≈ 0.556 µM) | COc1ccc2c(C)cc(=O)n(CCN3CCC(NCC(=O)Nc4ccccn4)CC3)c2c1 [Example 18, N-(pyridin-2-yl)-N^2-(1-(2-(7-methoxy-4-methyl-2-oxoquinolin-1(2H)-yl)ethyl)piperidin-4-yl)glycinamide]
0.125 (≈ 0.27 µM) | COc1ccc2ccc(=O)n(CCN3CCC(NC(=O)c4ccc5c(c4)OCCO5)CC3)c2c1 [Example 36, N-(1-(2-(7-methoxy-2-oxoquinolin-1(2H)-yl)ethyl)piperidin-4-yl)-2,3-dihydro-1,4-benzodioxin-6-carboxamide]
0.0625 (≈ 0.144 µM) | COc1ccc2c(C)cc(=O)n(CCN3CCC(NCCCc4ccccc4)CC3)c2c1 [Example 39, 7-methoxy-4-methyl-1-(2-(4-((3-phenylpropyl)amino)piperidin-1-yl)ethyl)quinolin-2(1H)-one]
0.125 (≈ 0.251 µM) | COc1ccc2ccc(=O)n(CCCC3(C(=O)O)CCN(CCSc4cccc(F)c4)CC3)c2c1 [Example 51, 1-(2-((3-fluorophenyl)thio)ethyl)-4-(3-(7-methoxy-2-oxoquinolin-1(2H)-yl)propyl)piperidine-4-carboxylic acid]
1 (≈ 1.97 µM) | COc1ccc2c(C)cc(=O)n(CCN3CCN(CCc4ccc5c(c4)OCCO5)C(C(=O)O)C3)c2c1 (stereo not shown) [Example 53, 1-(2-(2,3-dihydro-1,4-benzodioxin-6-yl)ethyl)-4-(2-(7-methoxy-4-methyl-2-oxoquinolin-1(2H)-yl)ethyl)piperazine-2-carboxylic acid]
0.25 (≈ 0.493 µM) | CNC(=O)c1cc(=O)n(CCN2CCC(NCc3cc4c(cn3)OCCO4)CC2)c2cc(OC)ccc12 [Example 66, 1-(2-(4-((2,3-dihydro(1,4)dioxino(2,3-c)pyridin-7-ylmethyl)amino)piperidin-1-yl)ethyl)-7-methoxy-N-methyl-2-oxo-1,2-dihydroquinoline-4-carboxamide]
0.25 (≈ 0.508 µM) | COc1ccc2c(C(N)=O)cc(=O)n(CCN3CCC(NCc4ccc5c(c4)OCCO5)CC3)c2c1 [Example 70, 1-(2-(4-((2,3-dihydro-1,4-benzodioxin-6-ylmethyl)amino)piperidin-1-yl)ethyl)-7-methoxy-2-oxo-1,2-dihydroquinoline-4-carboxamide]
0.125 (≈ 0.24 µM) | CCNC(=O)c1cc(=O)n(CCN2CCC(NCc3ccc4c(c3)OCCO4)CC2)c2cc(OC)ccc12 [Example 77, 1-(2-(4-((2,3-dihydro-1,4-benzodioxin-6-ylmethyl)amino)piperidin-1-yl)ethyl)N-ethyl-7-methoxy-2-oxo-1,2-dihydroquinoline-4-carboxamide]
0.0625 (≈ 0.117 µM) | COc1ccc2c(C(=O)NC3CC3)cc(=O)n(CCN3CCC(NCc4ccc5c(c4)OCCO5)CC3)c2c1 [Example 79, N-cyclopropyl-1-(2-(4-((2,3-dihydro-1,4-benzodioxin-6-ylmethyl)amino)piperidin-1-yl)ethyl)-7-methoxy-2-oxo-1,2-dihydroquinoline-4-carboxamide]
0.0625 (≈ 0.11 µM) | COc1ccc2c(C(=O)Nc3ccccc3)cc(=O)n(CCN3CCC(NCc4ccc5c(c4)OCCO5)CC3)c2c1 [Example 83, 1-(2-(4-((2,3-dihydro-1,4-benzodioxin-6-ylmethyl)amino)piperidin-1-yl)ethyl)-7-methoxy-2-oxo-N-phenyl-1,2-dihydroquinoline-4-carboxamide]
